37 compounds from patent US8088791B2, “Antibacterial agents” (Biots Scientific Management Pty Ltd, priority 2006, dated 2012) can be followed below.

SMILES strings stand for the structures. ≈ marks a conversion by molar mass, not a printed value.

The subject of the assay is Bacillus subtilis 168CA. Nature of the assay: Minimum Inhibitory Concentration (MIC) testing, broth microdilution, Bacillus subtilis. To be noted: Bacillus subtilis 168CA; read-out: Bacillus subtilis MICs Activity. In kind it is cell-based. On the procedure:
Compounds of this invention were tested for antimicrobial activity by susceptibility testing in liquid media. MICs for compounds against each strain were determined by a broth microdilution method according to the National Committee for Clinical Laboratory Standards (NCCLS) guidelines. (NCCLS. 2000. Methods for dilution antimicrobial susceptibility tests for bacteria that grow aerobically—fifth edition. Approved standard M7-A5. NCCLS, Wayne, Pa.)
Briefly, test compounds are prepared in 100 μl of 1.6% DMSO solution in multiwell plates. Several bacterial colonies from a freshly streaked plate are transferred to an appropriate rich broth, such as Mueller Hinton. The cell suspension is adjusted to an optical density of 0.09 and further diluted 1:100 with warm 2× broth. This cell suspension is dispensed into the wells containing compound solution so that the final volume is 200 μl. The plates are incubated overnight (16-20 hours) at 37° C. and turbidity is scored by eye and quantified spectrophotometrically. The MIC is defined as the lowest concentration inhibiting visible growth.
Activities were scored as ‘A’ if the MIC was ≦8 micrograms/ml, ‘B’ if the MIC was 16 to 64 micrograms/ml and ‘C’ if the MIC was greater than 64 micrograms/ml.
In general terms: Broth dilution looks for growth in wells or tubes with falling amounts of substance.

In the case of `CC(C)CCOc1cccc(C(N)=O)c1` [Example 13, 3-(Isopentyloxy)benzenecarboxamide], the MIC fell in the range of 16 to 64 µg/mL (≈ 77.2 to 309 µM).
In the case of `NC(=O)c1cccc(OCCc2ccc(F)cc2)c1` [Example 34, 3-[(4-Fluorophenethyl)oxy]benzenecarboxamide] it was 16 to 64 µg/mL (≈ 61.7 to 247 µM); in that of `CCCCCCC#CCOc1cccc(C(N)=O)c1` [Example 50, 3-(2-Nonynyloxy)benzenecarboxamide], less than 8 µg/mL; in that of `Cc1cccc2nc(COc3ccc(F)c(C(N)=O)c3F)ccc12` [Example 96, 2,6-Difluoro-3-(5-methyl-quinolin-2-ylmethoxy)-benzamide], 16 to 64 µg/mL (≈ 48.7 to 195 µM).
`NC(=O)c1cccc(OCCCCCc2ccccc2)c1` [Example 21, 3-[(5-Phenylpentyl)oxy]benzenecarboxamide]: the MIC fell in the range of 16 to 64 µg/mL (≈ 56.5 to 226 µM).
Consider `NC(=O)c1c(F)ccc(OCc2nc(-c3cccc(Cl)c3)no2)c1F` [Example 255, 3-[3-(3-Chlorophenyl)-1,2,4-oxadiazol-5-yl]methoxy-2,6-difluorobenzenecarboxamide], for which the MIC is less than 8 µg/mL.
Regarding `C=CCOc1cccc(C(N)=O)c1` [Example 6, 3-(Allyloxy)benzenecarboxamide], the MIC was more than 64 µg/mL.
In the case of `NC(=O)c1c(F)ccc(OCc2nc(-c3cccc(C(F)(F)F)c3)no2)c1F` [Example 258, 2,6-Difluoro-3-(3-[3-(trifluoromethyl)phenyl]-1,2,4-oxadiazol-5-ylmethoxy)benzenecarboxamide] it was less than 8 µg/mL; in that of `CC(C)CCCCOc1cccc(C(N)=O)c1` [Example 22, 3-[(5-Methylhexyl)oxy]benzenecarboxamide], 16 to 64 µg/mL (≈ 68 to 272 µM); in that of `COc1cc(-c2noc(COc3ccc(F)c(C(N)=O)c3F)n2)ccc1OC(F)F` [Example 328, 3-[3-(4-Difluoromethoxy-3-methoxy-phenyl)-[1,2,4]oxadiazol-5-ylmethoxy]-2,6-difluoro-benzamide], less than 8 µg/mL.
For `NC(=O)c1c(F)ccc(OCc2cccc([N+](=O)[O-])c2)c1F` [Example 332, 2,6-Difluoro-3-(3-nitro-benzyloxy)-benzamide], the MIC is 16 to 64 µg/mL (≈ 51.9 to 208 µM).
In the case of `NC(=O)c1cccc(OCc2ccc3ccccc3n2)c1` [Example 23, 3-(2-Quinolinylmethoxy)benzenecarboxamide] it was 16 to 64 µg/mL (≈ 57.5 to 230 µM); in that of `CCOC(=O)CCCCCOc1cccc(C(N)=O)c1` [Example 37, Ethyl 6-[3-(aminocarbonyl)phenoxy]hexanoate], more than 64 µg/mL; in that of `COc1ccc(-c2noc(COc3ccc(F)c(C(N)=O)c3F)n2)c(OC)c1` [Example 261, 3-[3-(2,4-Dimethoxyphenyl)-1,2,4-oxadiazol-5-yl]methoxy-2,6-difluorobenzenecarboxamide], 16 to 64 µg/mL (≈ 40.9 to 164 µM).
In the case of `CC(C)Oc1cccc(C(N)=O)c1` [Example 3, 3-Isopropoxybenzenecarboxamide] it was more than 64 µg/mL; in that of `COC(=O)CCCCCCCCCOc1cccc(C(N)=O)c1` [Example 38, Methyl 10-[3-(aminocarbonyl)phenoxy]decanoate], less than 8 µg/mL; in that of `Cc1ccc2nc(COc3ccc(F)c(C(N)=O)c3F)ccc2c1` [Example 97, 2,6-Difluoro-3-(6-methyl-quinolin-2-ylmethoxy)-benzamide], less than 8 µg/mL.
Consider `NC(=O)c1c(F)ccc(OCc2nc(-c3ccc(Cl)c([N+](=O)[O-])c3)no2)c1F` [Example 329, 3-[3-(4-Chloro-3-nitro-phenyl)-[1,2,4]oxadiazol-5-ylmethoxy]-2,6-difluoro-benzamide], for which the MIC was less than 8 µg/mL.
For the compound `CCCCC#CCCCCOc1cccc(C(N)=O)c1` [Example 48, 3-(5-Decynyloxy)benzenecarboxamide], the MIC was less than 8 µg/mL.
In the case of `C=C(C)COc1cccc(C(N)=O)c1` [Example 11, 3-[(2-Methyl-2-propenyl)oxy]benzenecarboxamide], the MIC was more than 64 µg/mL.
In the case of `Cc1sc(-c2ccccc2)nc1CCCOc1ccc(F)c(C(N)=O)c1F` [Example 160, 2,6-Difluoro-3-[3-(5-methyl-2-phenyl-thiazol-4-yl)-propoxy]-benzamide] it was less than 8 µg/mL.
Turning to `CCOC(=O)COc1cccc(C(N)=O)c1` [Example 33, Ethyl 2-[3-(aminocarbonyl)phenoxy]acetate], the MIC was more than 64 µg/mL.
In the case of `NC(=O)c1c(F)ccc(OCc2cccc(OCc3ccccc3)c2)c1F` [Example 154, 3-(3-Benzyloxy-benzyloxy)-2,6-difluoro-benzamide] it was less than 8 µg/mL; in that of `Cc1cccc(-c2ccc3sc(COc4ccc(F)c(C(N)=O)c4F)nc3c2)c1` [Example 142, 2,6-Difluoro-3-(5-m-tolyl-benzothiazol-2-ylmethoxy)-benzamide], less than 8 µg/mL.
The figure for `NC(=O)c1c(F)ccc(OCc2ccc3cccnc3c2)c1F` [Example 330, 2,6-Difluoro-3-(quinolin-7-ylmethoxy)-benzamide] is 16 to 64 µg/mL (≈ 50.9 to 204 µM); for `NC(=O)c1c(F)ccc(OCc2nc(-c3cccc([N+](=O)[O-])c3)no2)c1F` [Example 259, 2,6-Difluoro-3-[3-(3-nitrophenyl)-1,2,4-oxadiazol-5-yl]methoxybenzenecarboxamide] it is less than 8 µg/mL.
In the case of `NC(=O)c1cccc(OCCCCc2ccccc2)c1` [Example 20, 3-(4-Phenylbutoxy)benzenecarboxamide] it was less than 8 µg/mL.
Turning to `NC(=O)c1c(F)ccc(OCc2ccc3cc(Cl)ccc3n2)c1F` [Example 110, 3-(6-Chloro-quinolin-2-ylmethoxy)-2,6-difluoro-benzamide], the MIC is less than 8 µg/mL.
In the case of `NC(=O)c1c(F)ccc(OCc2nc(-c3ccccc3O)no2)c1F` [Example 253, 2,6-Difluoro-3-[3-(2-hydroxyphenyl)-1,2,4-oxadiazol-5-yl]methoxybenzenecarboxamide], the MIC is 16 to 64 µg/mL (≈ 46.1 to 184 µM).
For the compound `COCCOc1cccc(C(N)=O)c1` [Example 9, 3-(2-Methoxyethoxy)benzenecarboxamide], the MIC is more than 64 µg/mL.
As for `CC(C)CCCOc1cccc(C(N)=O)c1` [Example 14, 3-[(4-Methylpentyl)oxy]benzenecarboxamide], the MIC was in the range of 16 to 64 µg/mL (≈ 72.3 to 289 µM).
The figure for `NC(=O)c1c(F)ccc(OCc2nc(-c3ccccc3Cl)no2)c1F` [Example 254, 3-[3-(2-Chlorophenyl)-1,2,4-oxadiazol-5-yl]methoxy-2,6-difluorobenzenecarboxamide] is less than 8 µg/mL.
In the case of `NC(=O)c1c(F)ccc(OCc2nc(COc3c(Cl)cccc3Cl)no2)c1F` [Example 264, 3-(3-[(2,6-Dichlorophenoxy)methyl]-1,2,4-oxadiazol-5-ylmethoxy)-2,6-difluorobenzenecarboxamide] it was 16 to 64 µg/mL (≈ 37.2 to 149 µM); in that of `CCOC(=O)CCCOc1cccc(C(N)=O)c1` [Example 25, Ethyl 4-[3-(aminocarbonyl)phenoxy]butanoate], more than 64 µg/mL; in that of `COc1ccc(CCOc2cccc(C(N)=O)c2)cc1` [Example 35, 3-[(4-Methoxyphenethyl)oxy]benzenecarboxamide], 16 to 64 µg/mL (≈ 59 to 236 µM).
On to `NC(=O)c1c(F)ccc(OCc2nnc(-c3ccc(Cl)cc3)s2)c1F` [Example 234, 3-[5-(4-Chlorophenyl)-1,3,4-thiadiazol-2-yl]methoxy-2,6-difluorobenzenecarboxamide], for which the MIC is less than 8 µg/mL.
Take `NC(=O)c1cccc(OCCCCOc2ccccc2)c1` [Example 10, 3-(4-Phenoxybutoxy)benzenecarboxamide]: the MIC is less than 8 µg/mL.
